In patent US10508109B2 (priority 2015, dated 2019):
Where a name gives a salt, the structure may show the parent alone. Read-outs that look alike come from different tables or passages of the source.

What was measured:
HCT-116 = experiment: Cell-based assay, anti-proliferative activity (Cell Counting Kit-8, 72 hours); conditions: Homo sapiens, read-out: IC50 (μM) HCT-116
In short: (§1)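 IC50 values reflect cell growth measured by Cell Counting Kit-8 following 72 hours of inhibitor exposure across a twofold dilution range up to 100 micro-M.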

PC14 = experiment: as above; conditions: Homo sapiens, read-out: IC50 (μM) PC14
In short: as §1

HFL1 = experiment: as above; conditions: Homo sapiens, read-out: IC50 (μM) HFL1
In short: as §1

CCD-18Co = experiment: as above; conditions: Homo sapiens, read-out: IC50 (μM) CCD-18Co
In short: as §1

A549 = experiment: as above; conditions: Homo sapiens, read-out: IC50 (μM) A549
In short: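 IC50 values come from growth read-outs taken after the cells' exposure to each candidate inhibitor. Cells had been plated in 96-well microtiter plates beforehand.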

SUV39H2 = SUV39H2 (Homo sapiens (Human), UniProt Q9H5I1); conditions: read-out: IC50 (μM) Suv 39H2 assay
Chain of SUV39H2 (Q9H5I1 whole entry): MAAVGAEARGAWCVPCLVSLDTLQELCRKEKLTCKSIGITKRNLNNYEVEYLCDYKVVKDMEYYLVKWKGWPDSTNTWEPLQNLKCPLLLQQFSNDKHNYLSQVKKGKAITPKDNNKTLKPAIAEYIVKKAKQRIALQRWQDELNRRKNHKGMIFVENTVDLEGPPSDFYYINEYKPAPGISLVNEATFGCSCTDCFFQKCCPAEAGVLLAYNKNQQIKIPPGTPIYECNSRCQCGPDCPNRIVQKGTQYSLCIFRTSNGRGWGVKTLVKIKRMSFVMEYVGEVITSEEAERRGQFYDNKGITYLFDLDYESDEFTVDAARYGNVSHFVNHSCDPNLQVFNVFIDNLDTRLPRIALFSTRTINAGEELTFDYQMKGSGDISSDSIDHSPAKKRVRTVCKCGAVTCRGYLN

[1] = HCT-116 cells, 72 hours, Cell Counting Kit-8
[2] = PC-14, PC14 cells, 72 hours, Cell Counting Kit-8
[3] = HFL1 cells, 72 hours, Cell Counting Kit-8
[4] = CCD-18Co cells, 72 hours, Cell Counting Kit-8
[5] = A549 cells, 72 hours, Cell Counting Kit-8
[6] = HCT-116 cells, Cell Counting Kit-8, 72 hours
[7] = PC-14, PC14 cells, Cell Counting Kit-8, 72 hours
[8] = HFL1 cells, Cell Counting Kit-8, 72 hours
[9] = CCD-18Co cells, Cell Counting Kit-8, 72 hours
[10] = A549 cells, Cell Counting Kit-8, 72 hours

Compound: COc1cc(OC)c(-c2cn3cc(NCCN)c(N4CCNCC4)nc3n2)cc1Cl [Example 223, N^1-(2-(5-chloro-2,4-dimethoxy-phenyl)-7-(piperazin-1-yl)imidazo[1,2-a]pyrimidin-6-yl)ethane-1,2-diamine]
- IC50 (HCT-116; [1]): 10 µM
- IC50 (PC14; [2]): 10 µM
- IC50 (HFL1; [3]): 10 µM
- IC50 (CCD-18Co; [4]): 10 µM
- IC50 (A549; [5]): 10 µM
- IC50 (SUV39H2; enzyme assay): 0.00866 µM

Compound: COc1cc(OC)c(-c2cn3ccc(N4CCC(NS(=O)(=O)Cc5ccccc5)CC4)cc3n2)cc1Cl [Example 175, N-{1-[2-(5-chloro-2,4-dimethoxyphenyl)imidazo[1,2-a]pyridin-7-yl]piperidin-4-yl}-1-phenylmethanesulfonamide]
- IC50 (HCT-116; [6]): 1.5 µM
- IC50 (PC14; [7]): 1.8 µM
- IC50 (HFL1; [8]): 1.9 µM
- IC50 (CCD-18Co; [9]): 2 µM
- IC50 (A549; [10]): 2 µM
- IC50 (SUV39H2; enzyme assay): 0.0263 µM

Compound: COc1cc(OC)c(-c2cn3ccc(N4CCC(NC(=O)OC(C)(C)C)C4)cc3n2)cc1C#N (stereo not drawn) [Example 71, tert-butyl {1-[2-(5-cyano-2,4-dimethoxyphenyl)imidazo[1,2-a]pyridin-7-yl]pyrrolidin-3-yl}carbamate]
- IC50 (HCT-116; [6]): 1.9 µM
- IC50 (PC14; [7]): 2 µM
- IC50 (HFL1; [8]): 1.6 µM
- IC50 (CCD-18Co; [9]): 3.2 µM
- IC50 (A549; [10]): 2.6 µM
- IC50 (SUV39H2; enzyme assay): 0.0075 µM

Compound: COc1cc(OC)c(-c2cn3ccc(N4CCCN(S(=O)(=O)C5CC5)CC4)cc3n2)cc1Cl [Example 187, 2-(5-chloro-2,4-dimethoxyphenyl)-7-[4-(cyclopropylsulfonyl)-1,4-diazepan-1-yl]imidazo[1,2-a]pyridine]
- IC50 (HCT-116; [6]): 1.9 µM
- IC50 (PC14; [7]): 1.4 µM
- IC50 (HFL1; [8]): 2.1 µM
- IC50 (CCD-18Co; [9]): 5 µM
- IC50 (A549; [10]): 2.1 µM
- IC50 (SUV39H2; enzyme assay): 0.00574 µM

Compound: COc1cc(OC)c(-c2cn3ccc(N4CCC(NC(C)=O)C4)nc3n2)cc1Br (stereo not drawn) [Example 66]
- IC50 (HCT-116; [6]): 18 µM
- IC50 (PC14; [7]): 16 µM
- IC50 (HFL1; [8]): 26 µM
- IC50 (CCD-18Co; [9]): 27 µM
- IC50 (A549; [10]): 25 µM
- IC50 (SUV39H2; enzyme assay): 0.00747 µM

Compound: COc1cc(OC)c(-c2cn3ccc(N4CCC(NS(=O)(=O)CC(C)C)CC4)cc3n2)cc1Cl [Example 185, N-{1-[2-(5-Chloro-2,4-dimethoxyphenyl)imidazo[1,2-a]pyridin-7-yl]piperidin-4-yl}-2-methylpropane-1-sulfonamide]
- IC50 (HCT-116; [6]): 1.1 µM
- IC50 (PC14; [7]): 1.4 µM
- IC50 (HFL1; [8]): 2 µM
- IC50 (CCD-18Co; [9]): 1.9 µM
- IC50 (A549; [10]): 1.6 µM
- IC50 (SUV39H2; enzyme assay): 0.0127 µM

Compound: COc1cc(C)c(Cl)cc1-c1cn2ccc(N3CCOCC3)cc2n1 [Example 230, 4-(2-(5-chloro-2-methoxy-4-methylphenyl)imidazo[1,2-a]pyridin-7-yl)morpholine]
- IC50 (HCT-116; [1]): 4 µM
- IC50 (PC14; [2]): 1.6 µM
- IC50 (HFL1; [3]): 2.8 µM
- IC50 (CCD-18Co; [4]): 3.5 µM
- IC50 (A549; [5]): 4.4 µM
- IC50 (SUV39H2; enzyme assay): 0.0183 µM

Compound: COc1cc(OC)c(-c2cn3ccc(NC(=O)[C@@H]4CCCN4)cc3n2)cc1Cl [Example 244, (S)—N-(2-(5-chloro-2,4-dimethoxyphenyl)imidazo[1,2-a]pyridin-7-yl)-pyrrolidine-2-carboxamide]
- IC50 (HCT-116; [1]): 10 µM
- IC50 (PC14; [2]): 5.2 µM
- IC50 (HFL1; [3]): 9.8 µM
- IC50 (CCD-18Co; [4]): 8.8 µM
- IC50 (A549; [5]): 10 µM
- IC50 (SUV39H2; enzyme assay): 0.0533 µM

Compound: COc1cc(OC)c(-c2cn3ccc(N4CCCNCC4)cc3n2)cc1Cl [Example 189, 2-(5-chloro-2,4-dimethoxyphenyl)-7-(1,4-diazepan-1-yl)imidazo[1,2-a]pyridine]
- IC50 (HCT-116; [6]): 3 µM
- IC50 (PC14; [7]): 2.9 µM
- IC50 (HFL1; [8]): 2 µM
- IC50 (CCD-18Co; [9]): 6.3 µM
- IC50 (A549; [10]): 3.5 µM
- IC50 (SUV39H2; enzyme assay): 0.00433 µM

Compound: COc1cc(OC)c(-c2cn3ccc(N4CCC(CCN(C)C)CC4)cc3n2)cc1Cl [Example 94, 2-(1-(2-(5-chloro-2,4-dimethoxyphenyl)imidazo[1,2-a]pyridin-7-yl)piperidin-4-yl)-N,N-dimethylethanamine]
- IC50 (HCT-116; [6]): 2.7 µM
- IC50 (PC14; [7]): 2.3 µM
- IC50 (HFL1; [8]): 4.5 µM
- IC50 (CCD-18Co; [9]): 3.6 µM
- IC50 (A549; [10]): 2.5 µM
- IC50 (SUV39H2; enzyme assay): 0.00887 µM

Compound: COc1cc(OC)c(-c2cn3ccc(N4CC[C@H](N)C4)cc3n2)cc1Cl [Example 47, (S)-1-(2-(5-Chloro-2,4-dimethoxyphenyl)imidazo[1,2-a]pyridin-7-yl)pyrrolidin-3-amine hydrochloride]
- IC50 (HCT-116; HCT-116, 72 h): 3.4 µM
- IC50 (PC14; PC-14, 72 h): 4.5 µM
- IC50 (HFL1; HFL1, 72 h): 2 µM
- IC50 (CCD-18Co; CCD-18Co, 72 h): 3.5 µM
- IC50 (A549; A549, 72 h): 3 µM
- IC50 (SUV39H2): 0.00829 µM

Compound: CCOC(=O)CCN1CCN(c2ccn3cc(-c4cc(Cl)c(OC)cc4OC)nc3c2)CC1 [Example 132, ethyl 3-(4-(2-(5-chloro-2,4-dimethoxyphenyl)imidazo[1,2-a]pyridin-7-yl)piperazin-1-yl)propanoate]
- IC50 (HCT-116; [6]): 9.8 µM
- IC50 (PC14; [7]): 9 µM
- IC50 (HFL1; [8]): 7.6 µM
- IC50 (CCD-18Co; [9]): 22 µM
- IC50 (A549; [10]): 11 µM
- IC50 (SUV39H2; enzyme assay): 0.0124 µM

Compound: COc1cc(OC)c(-c2cn3ccc(-c4ccc(C(=O)NCC5CCCN5)cc4)cc3n2)cc1Cl (stereo not drawn) [Example 248, 4-(2-(5-chloro-2,4-dimethoxyphenyl)imidazo[1,2-a]pyridin-7-yl)-N-(pyrrolidin-2-ylmethyl)benzamide]
- IC50 (HCT-116; [1]): 2.3 µM
- IC50 (PC14; [2]): 2.6 µM
- IC50 (HFL1; [3]): 5.7 µM
- IC50 (CCD-18Co; [4]): 3.1 µM
- IC50 (A549; [5]): 4.6 µM
- IC50 (SUV39H2; enzyme assay): 0.0157 µM

Compound: COc1cc(OC)c(-c2cn3ccc(OC4CCN(c5ccnc(N)n5)CC4)cc3n2)cc1Cl [Example 284, 4-(4-((2-(5-chloro-2,4-dimethoxyphenyl)imidazo[1,2-a]pyridin-7-yl)oxy)-piperidin-1-yl)pyrimidin-2-amine]
- IC50 (HCT-116; [1]): 0.71 µM
- IC50 (PC14; [2]): 0.98 µM
- IC50 (HFL1; [3]): 1.1 µM
- IC50 (CCD-18Co; [4]): 1.3 µM
- IC50 (A549; [5]): 1.5 µM
- IC50 (SUV39H2; enzyme assay): 0.0918 µM

Compound: COc1cc(OC)c(-c2cn3cc(Br)c(N4CCNCC4)nc3n2)cc1Cl [Example 220, 6-bromo-2-(5-chloro-2,4-dimethoxyphenyl)-7-(piperazin-1-yl)imidazo[1,2-a]pyrimidine]
- IC50 (HCT-116; [1]): 2.4 µM
- IC50 (PC14; [2]): 2.4 µM
- IC50 (HFL1; [3]): 3.1 µM
- IC50 (CCD-18Co; [4]): 3.1 µM
- IC50 (A549; [5]): 2.6 µM
- IC50 (SUV39H2; enzyme assay): 0.0262 µM

Compound: COC(=O)Nc1ccn2cc(-c3cc(Cl)c(OC)cc3OC)nc2c1 [Example 183, methyl [2-(5-chloro-2,4-dimethoxyphenyl)imidazo[1,2-a]pyridin-7-yl]-carbamate]
- IC50 (HCT-116; [6]): 2.1 µM
- IC50 (PC14; [7]): 1.9 µM
- IC50 (HFL1; [8]): 2 µM
- IC50 (CCD-18Co; [9]): 1.8 µM
- IC50 (A549; [10]): 1.8 µM
- IC50 (SUV39H2; enzyme assay): 0.0241 µM

Compound: COc1cc(OC)c(-c2cn3ccc(N4CCC(N)C4)cc3n2)cc1Cl (stereo not drawn) [Example 33, 1-[2-(5-chloro-2,4-dimethoxyphenyl)imidazo[1,2-a]pyridin-7-yl]pyrrolidin-3-amine]
- IC50 (HCT-116; [6]): 3.3 µM
- IC50 (PC14; [7]): 1.7 µM
- IC50 (HFL1; [8]): 2.2 µM
- IC50 (CCD-18Co; [9]): 3.2 µM
- IC50 (A549; [10]): 3.1 µM
- IC50 (SUV39H2; enzyme assay): 0.00704 µM

Compound: COc1cc(OC)c(-c2cn3ccc(N4CCC(O)CC4)cc3n2)cc1Cl [Example 231, 1-(2-(5-chloro-2,4-dimethoxyphenyl)imidazo[1,2-a]pyridine-7-yl)piperidin-4-ol]
- IC50 (HCT-116; [1]): 10 µM
- IC50 (PC14; [2]): 3.9 µM
- IC50 (HFL1; [3]): 6.7 µM
- IC50 (CCD-18Co; [4]): 9.1 µM
- IC50 (A549; [5]): 10 µM
- IC50 (SUV39H2; enzyme assay): 0.00488 µM

Compound: CCCCCNC1CCN(c2ccn3cc(-c4cc(Cl)c(OC)cc4OC)nc3c2)CC1 [Example 129, 1-[2-(5-chloro-2,4-dimethoxyphenyl)imidazo[1,2-a]pyridin-7-yl]-N-pentylpiperidin-4-amine]
- IC50 (HCT-116; [6]): 0.74 µM
- IC50 (PC14; [7]): 1.7 µM
- IC50 (HFL1; [8]): 0.7 µM
- IC50 (CCD-18Co; [9]): 1.3 µM
- IC50 (A549; [10]): 1.5 µM
- IC50 (SUV39H2; enzyme assay): 0.00841 µM

Compound: COc1cc(OC)c(-c2cn3ccc(NC(=O)CCNC(=O)OC(C)(C)C)cc3n2)cc1Cl [Example 157, tert-butyl (3-{[2-(5-chloro-2,4-dimethoxyphenyl)imidazo[1,2-a]pyridin-7-yl]amino}-3-oxopropyl)carbamate]
- IC50 (HCT-116; [6]): 6.8 µM
- IC50 (PC14; [7]): 6.2 µM
- IC50 (HFL1; [8]): 4.7 µM
- IC50 (CCD-18Co; [9]): 7.1 µM
- IC50 (A549; [10]): 7.5 µM
- IC50 (SUV39H2; enzyme assay): 0.0628 µM

Compound: CCc1cc(OC)c(Cl)cc1-c1cn2ccc(N3CCNCC3)cc2n1 [Example 260, 2-(5-chloro-2-ethyl-4-methoxyphenyl)-7-(piperazin-1-yl)imidazo-[1,2-a]pyridine]
- IC50 (HCT-116; [1]): 3.4 µM
- IC50 (PC14; [2]): 3.4 µM
- IC50 (HFL1; [3]): 3.6 µM
- IC50 (CCD-18Co; [4]): 3.5 µM
- IC50 (A549; [5]): 6.1 µM
- IC50 (SUV39H2; enzyme assay): 0.0344 µM

Compound: COc1cc(OC)c(-c2cn3ccc(N4CCNC4=O)cc3n2)cc1Cl [Example 138, 1-(2-(5-chloro-2,4-dimethoxyphenyl)imidazo[1,2-a]pyridin-7-yl)-imidazolidin-2-one]
- IC50 (HCT-116; [6]): 16 µM
- IC50 (PC14; [7]): 3.6 µM
- IC50 (HFL1; [8]): 5.5 µM
- IC50 (CCD-18Co; [9]): 2.2 µM
- IC50 (A549; [10]): 5.2 µM
- IC50 (SUV39H2; enzyme assay): 0.0201 µM
